Marks after values point to notes of the source that are not given here.
Experiment: Plasma pharmacokinetics, Arm II (oral BID), phase 1 trial
Format: in vivo, human
Procedure: Pharmacokinetics of ilorasertib were evaluated in the dose-escalation cohort on blood samples that were collected on cycle 1 days 1 and 15. Parameters determined: Cmax, time to Cmax (Tmax), terminal phase elimination half-life (t1/2), clearance, apparent oral clearance (CL/F), and area under the plasma concentration-time curve from time 0 to time of last measurable concentration (AUCt) and from time 0 to infinity (AUC∞). For Arm I, blood samples were collected prior to dosing and at 0.5, 1, 2, 3, 4, 6, 8, 10 or 12, and 24 h after dosing on cycle 1 days 1 and 15; of note, for institutions not able to collect the 10- or 12-h post-dose sample, the 24-h sample was replaced with 22-h and 28-h post-dose samples. In Arm II, for the first dose, blood samples were collected pre-dose and at 1, 2, 3, and 4 h post-dose on cycle 1 days 1 and 15; for the second dose, samples were collected pre-dose and at 1, 2, 3, 4, 18, and 24 h after second dose on cycle 1 days 1 and 15. In Arm III, blood samples were collected prior to infusion, at 1 h 55 min (just before end of infusion), and at 0.5, 1, 2, 4, 6, 8, 10, and 24 h after end of infusion on cycle 1 days 1 and 15; here also, for institutions not able to collect the 8-h or 10-h after-end-of-infusion samples, the 24-h sample was replaced with 22-h and 28-h post-dose samples. The liquid chromatography (LC)-mass spectrometry (MS)/MS method was developed and validated in the Bioanalysis Department of AbbVie. Fifty microliter of human plasma (K2EDTA as anticoagulant) was fortified with 300 μL of deuterium-stable labelled internal standard and mixed well. A HybridSPE precipitation plate (50 mg/96 wells, Supelco Analytical, Munich, Germany) was used to directly load and elute (under slight vacuum) the fortified samples into a clean collection plate. Samples were dried before reconstitution with 100 μL of 20/80 (v/v) acetonitrile/water, and injected for LC-MS/MS analysis. A Halo C8 (Wilmington, DE, USA; 2.7 μm, 2.1 × 30 mm) was used on an Agilent 1290 Infinity UPLC pump (Agilent Technologies, Santa Clara, CA) to carry out the separation. An isocratic condition with 25/75/0.1 (v/v/v) acetonitrile/water/98% formic acid was used as the mobile phase. The flow rate was set to be 0.6 mL/min. An MPS 3 C ([…] Ruhr, Germany) autosampler was used to introduce samples onto the UPLC system. An API 4000 mass spectrometer (Applied Biosystems, Foster City, CA) was used in the multiple reactions monitoring mode for the detection and quantitation of analyte. Descriptive statistics were used for demographic variables. The numbers and percentages of patients with treatment-emergent AEs (TEAEs) were tabulated using the Medical Dictionary for Regulatory Activities version 16.0 system organ class and preferred term, and further classified according to CTCAE version 4.0 criteria. The safety data set included all patients who received one or more doses of ilorasertib. The pharmacokinetic data set included all patients who received one or more doses of ilorasertib and had one or more pharmacokinetic samples. Values for pharmacokinetic parameters were determined using non-compartmental methods, with data analysed separately for each arm. A repeated measures analysis was performed for Tmax and dose-normalised Cmax, AUCt, and AUC∞. The model included random effects for patient and fixed effects for dose level, day, and the interaction of dose level and day. To assess effects of exposure on pharmacodynamic biomarkers, Cmax was employed as the directly measured marker of exposure for the rapid changes in DBP and PlGF pre-steady-state, while AUC∞ reflected exposure variability at the time of post-multiple-dose skin biopsy. Descriptive statistics were used to summarise ECOG performance status. The efficacy data set included all patients who received one or more doses of ilorasertib.

[1] = Arm II PO BID 40 mg, day 1, N=2, mean (individual)
[2] = Arm II PO BID 40 mg, day 15, N=3
[3] = Arm II PO BID 60 mg, day 1, N=3
[4] = Arm II PO BID 60 mg, day 15, N=1
[5] = Arm II PO BID 60 mg, day 15, N=3
[6] = Arm II PO BID 90 mg, day 1, N=2, mean (individual)
[7] = Arm II PO BID 90 mg, day 1, N=3
[8] = Arm II PO BID 90 mg, day 15, N=2, mean (individual)
[9] = Arm II PO BID 90 mg, day 15, N=3
[10] = Arm II PO BID 130 mg, day 1, N=3
[11] = Arm II PO BID 130 mg, day 1, N=4
[12] = Arm II PO BID 130 mg, day 15, N=1
[13] = Arm II PO BID 130 mg, day 15, N=3
[14] = Arm II PO BID 190 mg, day 1, N=4
[15] = Arm II PO BID 190 mg, day 1, N=7
[16] = Arm II PO BID 190 mg, day 15, N=2, mean (individual)
[17] = Arm II PO BID 190 mg, day 15, N=5
[18] = Arm II PO BID 230 mg, day 1, N=2, mean (individual)
[19] = Arm II PO BID 230 mg, day 1, N=3
[20] = Arm II PO BID 230 mg, day 15, N=1
[21] = Arm II PO BID 230 mg, day 15, N=4
[22] = Arm II PO BID 340 mg, day 1, N=1
[23] = Arm II PO BID 340 mg, day 1, N=3
[24] = Arm II PO BID 340 mg, day 15, N=1
[25] = Arm II PO BID all doses, day 1, N=14
[26] = Arm II PO BID all doses, day 1, N=26
[27] = Arm II PO BID all doses, day 15, N=7
[28] = Arm II PO BID all doses, day 15, N=22

Nc1ncc(-c2cnn(CCO)c2)c2scc(-c3ccc(NC(=O)Nc4cccc(F)c4)cc3)c12 [ilorasertib, Ilorasertib]
AUC∞/dose [1]: 49.9 (35.6, 64.1)^b ng•h/mL/mg | CL/F [1]: 21.8 (28.1, 15.6)^b L/h | AUCt/dose (Arm II PO BID 40 mg, day 1, N=3): 46.5 ± 20.5 ng·h/mL/mg | AUCt/dose [2]: 46.9 ± 25.6 ng·h/mL/mg | Cmax/dose [2]: 2.4 ± 1.3 ng/mL/mg | AUCt/dose [3]: 45.4 ± 12.2 ng·h/mL/mg | Cmax/dose [3]: 3.2 ± 1.2 ng/mL/mg | AUC∞/dose [4]: 45.3^b ng•h/mL/mg | CL/F [4]: 22.1^b L/h | AUCt/dose [5]: 24.3 ± 5.9 ng·h/mL/mg | Cmax/dose [5]: 1.9 ± 0.47 ng/mL/mg | AUC∞/dose [6]: 22.4 (14.1, 30.6)^b ng•h/mL/mg | CL/F [6]: 51.7 (70.7, 32.6)^b L/h | AUCt/dose [7]: 21.8 ± 8.5 ng·h/mL/mg | Cmax [7]: 0.30 ± 0.1 µg/mL | Cmax/dose [7]: 1.7 ± 0.6 ng/mL/mg | AUC∞/dose [8]: 29.6 (41.1, 18.1)^c ng•h/mL/mg | CL/F [8]: 39.8 (24.3, 55.2)^c L/h | t1/2 (harmonic mean) [8]: 16.2 (23.4, 12.4)^c h | AUCt/dose [9]: 22.5 ± 8.4 ng·h/mL/mg | Cmax/dose [9]: 1.8 ± 0.54 ng/mL/mg | AUC∞/dose [10]: 25.1 ± 17.2^c ng•h/mL/mg | CL/F [10]: 51.5 ± 25.9^c L/h | AUCt/dose [11]: 19.5 ± 12.2 ng·h/mL/mg | Cmax/dose [11]: 2.3 ± 1.5 ng/mL/mg | AUC∞/dose [12]: 15.2^b ng•h/mL/mg | CL/F [12]: 65.7^b L/h | AUCt/dose [13]: 9.2 ± 5.0 ng·h/mL/mg | Cmax/dose [13]: 1.0 ± 1.1 ng/mL/mg | AUC∞/dose [14]: 46.8 ± 29.7^d ng•h/mL/mg | CL/F [14]: 29.6 ± 17.9^d L/h | t1/2 (harmonic mean) [14]: 13.7 ± 9.0^d h | AUCt [15]: 8.10 ± 4.44 µg·h/mL | AUCt/dose [15]: 21.3 ± 11.7 ng·h/mL/mg | Cmax/dose [15]: 1.4 ± 0.8 ng/mL/mg | AUC∞/dose [16]: 28.0 (20.9, 35.2)^c ng•h/mL/mg | CL/F [16]: 38.1 (47.8, 28.4)^c L/h | AUCt/dose [17]: 17.6 ± 13.7 ng·h/mL/mg | Cmax/dose [17]: 1.7 ± 1.0 ng/mL/mg | AUC∞/dose [18]: 19.9 (18.1, 21.7)^b ng•h/mL/mg | CL/F [18]: 50.8 (55.4, 46.1)^b L/h | AUCt/dose [19]: 21.9 ± 7.9 ng·h/mL/mg | Cmax/dose [19]: 1.5 ± 0.5 ng/mL/mg | AUC∞/dose [20]: 28.2^b ng•h/mL/mg | CL/F [20]: 35.5^b L/h | AUCt/dose [21]: 24.4 ± 9.4 ng·h/mL/mg | Cmax/dose [21]: 1.7 ± 1.0 ng/mL/mg | AUC∞/dose [22]: 145^e ng•h/mL/mg | CL/F [22]: 6.9^e L/h | AUCt/dose [23]: 57.8 ± 21.8 ng·h/mL/mg | Cmax/dose [23]: 3.0 ± 1.3 ng/mL/mg | AUCt/dose [24]: 23.0 ng·h/mL/mg | Cmax/dose [24]: 1.1 ng/mL/mg | AUC∞/dose [25]: 42.3 ± 36.5^f ng•h/mL/mg | CL/F [25]: 37.7 ± 21.8^f L/h | t1/2 (harmonic mean) [25]: 13.0 ± 6.2^f h | AUCt/dose [26]: 31.1 ± 18.8 ng·h/mL/mg | Cmax/dose [26]: 2.2 ± 1.2 ng/mL/mg | AUC∞/dose [27]: 29.1 ± 11.7^d ng•h/mL/mg | CL/F [27]: 39.9 ± 16.7^d L/h | t1/2 (harmonic mean) [27]: 9.9 ± 3.7^d h | AUCt/dose [28]: 23.5 ± 15.5 ng·h/mL/mg | Cmax/dose [28]: 1.7 ± 0.9 ng/mL/mg

— article PMC5931107, “Clinical pharmacodynamic/exposure characterisation of the multikinase inhibitor ilorasertib (ABT-348) in a phase 1 dose-escalation trial” (British Journal of Cancer, 2018)
